Laboratory results published in US20160039880A1 (priority 2012, published 2016).
Converted amounts (≈) assume the structure as drawn. Read-outs that look alike come from different tables or passages of the source. Starred links: 1 amine or outer side, 2 acyl side, 3 side chain; linkers in the order of their positions; H or OH if unused. Non-standard residues stand in square brackets, D forms with d. Residues, ends and D or L forms follow the SMILES beside them. X2 = CC(CCN1CCOCC1)C(O)C(C(=O)[*:2])N(C)[*:1]; X1 = CCN(C(C(=O)[*:2])C(C)C)[*:1]; NMeL = CN[CH](CC(C)C)C(=O)O; NMeV = CN[CH](C(=O)O)C(C)C; NMeA = CN[CH](C)C(=O)O; Abu = CC[CH](N)C(=O)O

Experiments:
[1] = Water Solubility Assay (measured in pH 7.8 buffer); assay type: physicochemical;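 also: precipitation onset detected as rise in absorbance at 650 nm across increasing concentrations, after shaking for 18 h, blank wells receiving DMSO only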
[2] = molecular target: Human recombinant cyclophilin A (Cyp A) (Homo sapiens, UniProt P62937); assay: Protease-free PPIase assay;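 also: cis to trans isomerization of SUC-AAPF-pNA by 2 nM enzyme, read as absorbance at 330 nm over 300 s at 10 °C, catalytic rate corrected for uncatalyzed background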
Sequence of Human recombinant cyclophilin A (Cyp A) (P62937 whole entry): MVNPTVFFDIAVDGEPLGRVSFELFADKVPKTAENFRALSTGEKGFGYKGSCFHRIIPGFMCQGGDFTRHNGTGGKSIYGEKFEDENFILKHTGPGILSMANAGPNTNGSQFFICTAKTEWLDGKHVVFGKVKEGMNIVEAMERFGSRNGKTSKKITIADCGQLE

Calcineurin = Calcineurin (Homo sapiens, UniProt P62937+P63098+Q08209); assay: Calcineurin Phosphatase (CaN) Assay with Cyp A (+CypA); conditions: for IC50: read-out: Calcineurin Phosphatase (CaN) Assay (+CypA) IC50, in the presence of Cyp A
Sequence of Calcineurin (P63098 whole entry, other chains not shown): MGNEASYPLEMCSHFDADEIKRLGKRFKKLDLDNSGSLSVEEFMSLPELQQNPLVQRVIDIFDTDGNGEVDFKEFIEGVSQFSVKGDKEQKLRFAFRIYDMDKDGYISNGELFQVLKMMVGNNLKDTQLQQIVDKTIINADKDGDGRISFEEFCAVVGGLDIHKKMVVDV
Sequence of Calcineurin (P62937 whole entry, other chains not shown): as the sequence (P62937 whole entry) above

[3] = 35 mM HEPES pH 7.8, 1% DMSO, 25 °C, 18 h, read-out: Water Solubility Assay, concentration at which the compound remains in solution
[4] = read-out: Protease-free PPIase Assay Ki, cyclophilin A, 10 °C
[5] = read-out: Protease-free PPIase Assay Ki, Cyclophilin A (Cyp A) inhibitory activity

SMILES	solubility at 18 h [1, 3] [µM]	Ki [2, 4] [nM]	IC50 (Calcineurin; 1:1 complex with inhibitor) [nM]	further results
CC[C@H]1NC(=O)[C@@H]([C@H](O)[C@H](C)CCN2C[C@H]3CN(C)C[C@H]3C2)N(C)C(=O)[C@@H](C(C)C)N(C)C(=O)[C@@H](CC(C)C)N(C)C(=O)[C@@H](CC(C)C)N(C)C(=O)[C@H](C)NC(=O)[C@@H](C)NC(=O)[C@@H](CC(C)C)N(C)C(=O)[C@@H](C(C)C)NC(=O)[C@H](CC(C)C)N(C)C(=O)[C@@H](C)N(C)C1=O (relative stereo) [Compound O, [(3R,4R,5S)-4-Hydroxy-3-methyl-5-(methylamino)-1-(N-(3aR*,6aS*)-2-methyloctahydropyrrolo[3,4-c]pyrrolo)-hexanoic acid]^1[(R)-methyl-Sar]^3 cyclosporin A]	>100	8.2	> 10000	–
CC[C@H]1NC(=O)[C@@H]([C@H](O)[C@H](C)CCCCCN2CCOCC2)N(C)C(=O)[C@@H](C(C)C)N(C)C(=O)[C@@H](CC(C)C)N(C)C(=O)[C@@H](CC(C)C)N(C)C(=O)[C@H](C)NC(=O)[C@@H](C)NC(=O)[C@@H](CC(C)C)N(C)C(=O)[C@@H](C(C)C)NC(=O)[C@H](CC(C)C)N(C)C(=O)[C@@H](C)N(C)C1=O [Compound G, [(6R,7R,8S)-7-hydroxy-6-methyl-8-(methylamino)-1-N-morpholino-nonanoic acid]^1[(R)-methyl-Sar]^3 cyclosporin A]	>100	6.2	> 10000	–
CCC1NC(=O)C(C(O)C(C)CCN2CCCOCC2)N(C)C(=O)C(C(C)C)N(C)C(=O)C(CC(C)C)N(C)C(=O)C(CC(C)C)N(C)C(=O)C(C)NC(=O)C(C)NC(=O)C(CC(C)C)N(C)C(=O)C(C(C)C)NC(=O)C(CC(C)C)N(C)C(=O)C(COCCN(CC)CC)N(C)C1=O [Compound AD, [(3R,4R,5S)-4-Hydroxy-3-methyl-5-(methylamino)-1-N-homomorpholino-hexanoic acid]^1[(R)-2-diethylaminoethyloxymethyl-Sar]^3 cyclosporin A]	–	18	> 10000	–
CCC1NC(=O)C(C(O)C(C)CCN2CCCCO2)N(C)C(=O)C(C(C)C)N(C)C(=O)C(CC(C)C)N(C)C(=O)C(CC(C)C)N(C)C(=O)C(C)NC(=O)C(C)NC(=O)C(CC(C)C)N(C)C(=O)C(C(C)C)NC(=O)C(CC(C)C)N(C)C(=O)C(C)N(C)C1=O [Compound ED, [(3R,4R,5S)-4-Hydroxy-3-methyl-5-(methylamino)-1-([1,2]oxazinan-2-yl)-hexanoic acid]^1[(R)-methyl-Sar]^3 cyclosporin A]	–	–	–	Ki [2, 5]: 3.8 nM; IC50 (Calcineurin): > 10000 nM
CC[C@H]1NC(=O)[C@@H]([C@H](O)[C@H](C)CCCC(=O)N2CCOCC2)N(C)C(=O)[C@@H](C(C)C)N(C)C(=O)[C@@H](CC(C)C)N(C)C(=O)[C@@H](CC(C)C)N(C)C(=O)[C@H](C)NC(=O)[C@@H](C)NC(=O)[C@@H](CC(C)C)N(C)C(=O)[C@@H](C(C)C)NC(=O)[C@H](CC(C)C)N(C)C(=O)[C@@H](C)N(C)C1=O [Compound H, [(5R,6R,7S)-6-hydroxy-5-methyl-7-(methylamino)-1-N-morpholino-1-oxo-octanoic acid]^1[(R)-methyl-Sar]^3 cyclosporin A]	>100	3.9	> 10000	–
CCC1NC(=O)C(C(O)C(C)CCN2CCOCC2)N(C)C(=O)C(C(C)C)N(C)C(=O)C(CC(C)C)N(C)C(=O)C(CC(C)C)N(C)C(=O)C(C)NC(=O)C(C)NC(=O)C(CC(C)C)N(C)C(=O)C(C(C)C)NC(=O)C(C(C)C)N(CC)C(=O)C(C)N(C)C1=O [Compound EJ, [(3R,4R,5S)-4-Hydroxy-3-methyl-1-(morpholin-4-yl)-hexanoic acid]^1[(R)-methyl-Sar]^3[Ethyl-Val]^4 cyclosporin A] (cyclo([X1]V[NMeL]AA[NMeL][NMeL][NMeV][X2][Abu][NMeA]); configuration not given here)	–	–	–	solubility at 18 h ([1]; pH 7.8 buffer, read-out: Water Solubility Assay): >100 µM; Ki [2, 5]: 9 nM; IC50 (Calcineurin): > 10000 nM
CC[C@H]1NC(=O)[C@@H]([C@H](O)[C@H](C)CCN2CCOCC2)N(C)C(=O)[C@@H](C(C)C)N(C)C(=O)[C@@H](CC(C)C)N(C)C(=O)[C@@H](CC(C)C)N(C)C(=O)[C@H](C)NC(=O)[C@@H](C)NC(=O)[C@@H](CC(C)C)N(C)C(=O)[C@@H](C(C)C)NC(=O)[C@H](CC(C)C)N(C)C(=O)[C@@H](CSCCN(CC)CC)N(C)C1=O [Compound AC, [(3R,4R,5S)-4-Hydroxy-3-methyl-5-(methylamino)-1-N-morpholino-hexanoic acid]^1[(S)-2-diethylaminoethylthiomethyl-Sar]^3 cyclosporin A]	>100	7.5	> 10000	–
CC[C@H]1NC(=O)[C@@H]([C@H](O)[C@H](C)CCCC(=O)N(CC)CC)N(C)C(=O)[C@@H](C(C)C)N(C)C(=O)[C@@H](CC(C)C)N(C)C(=O)[C@@H](CC(C)C)N(C)C(=O)[C@H](C)NC(=O)[C@@H](C)NC(=O)[C@@H](CC(C)C)N(C)C(=O)[C@@H](C(C)C)NC(=O)[C@H](CC(C)C)N(C)C(=O)[C@@H](C)N(C)C1=O [Compound U, [(5R,6R,7S)-6-hydroxy-5-methyl-7-(methylamino)-1-diethylamino-1-oxo-octanoic acid]^1[(R)-methyl-Sar]^3 cyclosporin A]	–	4	> 10000	–
CC[C@H]1NC(=O)[C@@H]([C@H](O)[C@H](C)CCN2CCOCC2)N(C)C(=O)[C@@H](C(C)C)N(C)C(=O)[C@@H](CC(C)C)N(C)C(=O)[C@@H](CC(C)C)N(C)C(=O)[C@H](C)NC(=O)[C@@H](C)NC(=O)[C@@H](CC(C)C)N(C)C(=O)[C@@H](C(C)C)NC(=O)[C@H](CC(C)C)N(C)C(=O)[C@@H](COCCN(CC)CC)N(C)C1=O [Compound S, [(3R,4R,5S)-4-Hydroxy-3-methyl-5-(methylamino)-1-N-morpholino-hexanoic acid]^1[(R)-2-diethylaminoethyloxymethyl-Sar]^3 cyclosporin A]	>100	10	> 10000	–
CC[C@H]1NC(=O)[C@@H]([C@H](O)[C@H](C)CCN2CC(F)(F)OC(F)(F)C2)N(C)C(=O)[C@@H](C(C)C)N(C)C(=O)[C@@H](CC(C)C)N(C)C(=O)[C@@H](CC(C)C)N(C)C(=O)[C@H](C)NC(=O)[C@@H](C)NC(=O)[C@@H](CC(C)C)N(C)C(=O)[C@@H](C(C)C)NC(=O)[C@H](CC(C)C)N(C)C(=O)[C@@H](CO)N(C)C1=O [Compound EO]	–	–	–	solubility at 18 h ([1]; 35 mM HEPES buffer pH 7.8, 25 °C, aqueous buffer, kinetic from dmso stock, pH 7.8 buffer, read-out: Water Solubility Assay): 10 to 25 µM (≈ 13.6 to 34.1 µg/mL); Ki [2]: 13 nM; immunosuppressive potential (Calcineurin; in words, as measured by the MLR and CaN assays): more immunosuppressive potential than others
CCC1NC(=O)C(C(O)C(C)CCN2CCn3cc(C(F)(F)F)nc3C2)N(C)C(=O)C(C(C)C)N(C)C(=O)C(CC(C)C)N(C)C(=O)C(CC(C)C)N(C)C(=O)C(C)NC(=O)C(C)NC(=O)C(CC(C)C)N(C)C(=O)C(C(C)C)NC(=O)C(CC(C)C)N(C)C(=O)C(C)N(C)C1=O [Compound EE, [(3R,4R,5S)-4-Hydroxy-3-methyl-5-(methylamino)-1-(2-trifluoromethyl-5,6-dihydro-8H-imidazo[1,2-a]pyrazin-7-yl)-hexanoic acid]^1[(R)-methyl-Sar]^3 cyclosporin A]	–	–	–	Ki [2, 5]: 9.1 nM; IC50 (Calcineurin): > 10000 nM
CCC1NC(=O)C(C(O)C(C)CCN2CCCCC2C(F)(F)F)N(C)C(=O)C(C(C)C)N(C)C(=O)C(CC(C)C)N(C)C(=O)C(CC(C)C)N(C)C(=O)C(C)NC(=O)C(C)NC(=O)C(CC(C)C)N(C)C(=O)C(C(C)C)NC(=O)C(CC(C)C)N(C)C(=O)C(C)N(C)C1=O (mixture of isomers) [Compound EB, [(3R,4R,5S)-4-Hydroxy-3-methyl-5-(methylamino)-1-(2-trifluoromethyl-piperidin-1-yl)-hexanoic acid]^1[(R)-methyl-Sar]^3 cyclosporin A]	–	–	–	Ki [2, 5]: 3.7 nM; IC50 (Calcineurin): > 10000 nM
CC[C@@H]1NC(=O)[C@H]([C@H](O)[C@H](C)CCCC(=O)N2C[C@H]3CN(C)C[C@H]3C2)N(C)C(=O)[C@H](C(C)C)N(C)C(=O)[C@H](CC(C)C)N(C)C(=O)[C@H](CC(C)C)N(C)C(=O)[C@@H](C)NC(=O)[C@H](C)NC(=O)[C@H](CC(C)C)N(C)C(=O)[C@H](C(C)C)NC(=O)[C@H](CC(C)C)N(C)C(=O)[C@@H](C)N(C)C1=O (relative stereo) [Compound ZZ, [(5R,6R,7S)-6-hydroxy-5-methyl-7-(methylamino)-1-(N-(3aR*,6aS*)-2-methyloctahydropyrrolo[3,4-c]pyrrolo)-1-oxo-octanoic acid]1[(R)-methyl-Sar]3 cyclosporin A]	>100	2.6	> 10000	–
CCC1NC(=O)C(C(O)C(C)CCN2CCOCC2)N(C)C(=O)C(C(C)C)N(C)C(=O)C(CC(C)C)N(C)C(=O)C(CC(C)C)N(C)C(=O)C(C)NC(=O)C(C)NC(=O)C(CC(C)C)N(C)C(=O)C(C(C)C)NC(=O)C(CC(C)C)N(C)C(=O)C(CC)N(C)C1=O [Compound AB, [(3R,4R,5S)-4-hydroxy-3-methyl-5-(methylamino)-1-N-morpholino-hexanoic acid]^1[(R)-ethyl-Sar]^3 cyclosporin A]	>100	5.6	> 10000	–
CC[C@H]1NC(=O)[C@@H]([C@H](O)[C@H](C)CCN2CCCOCC2)N(C)C(=O)[C@@H](C(C)C)N(C)C(=O)[C@@H](CC(C)C)N(C)C(=O)[C@@H](CC(C)C)N(C)C(=O)[C@H](C)NC(=O)[C@@H](C)NC(=O)[C@@H](CC(C)C)N(C)C(=O)[C@@H](C(C)C)NC(=O)[C@H](CC(C)C)N(C)C(=O)[C@@H](C)N(C)C1=O [Compound X]	>100	4.9	> 10000	–
